In patent US12207673B2, “Compounds that modulate fatty acid receptor activity and pet food products containing the same” (MARS, INCORPORATED, priority 2014, dated 2025):

Key:
fGPR120 = fGPR120 agonist mode / PAM mode assay in CHO/NatClytin/fGpr120+Gα16 cells, Fluo8-NW, FLIPR Tetra; assay type: cell-based, feline
Method: Methods: CHO cells that stably express fGPR120 were used to assay dodecyl dihydrogen phosphate for activity as an fGPR120 agonist or PAM.
CHO/NatClytin/fGpr120+Gα16 (fGpr120) cells and CHO/NatClytin/mock+Gα16 (mock) cells were seeded at 5,000 cells/well. 24 hours after cell seeding, cells were loaded with 0.5×Fluo8-NW dye in standard tyrode buffer (20 μl/well) for 1 h at room temperature. The ability of dodecyl dihydrogen phosphate to activate fGPR120 expressed by the CHO cells was determined by measuring fluorescence using a FLIPR® Tetra screening system after contacting the cells with the compound in agonist mode and PAM mode according to the following protocol: • 1. […] For mock controls, 0.2μ ATP was used as the agonist.
The maximum of ΔF/F values measured using the FLIPR® Tetra system were exported and used for data analysis.
The compounds used in the experiments were dissolved 6× in 0.01% BSA (fatty acid-free) and then pre-mixed on compound plates with buffer.
Controls for agonist mode experiments—dose response curves of α-linolenic acid (FIGS. 12A and 12B): 100 μM α-linolenic acid (fGpr120 max signal), 30 μM ATP (max signal), buffer (min signal), buffer+0.01% BSA (min signal).

[1] = system: CHO/NatClytin/mock+Gα16 (mock) cells; experiment: Mock control of the agonist/PAM assay with ATP as agonist; assay type: cell-based; conditions: concentration used as min signal in PAM mode
Method: CHO/NatClytin/fGpr120+Gα16 (fGpr120) cells and CHO/NatClytin/mock+Gα16 (mock) cells were seeded at 5,000 cells/well. 24 hours after cell seeding, cells were loaded with 0.5×Fluo8-NW dye in standard tyrode buffer (20 μl/well) for 1 h at room temperature. The ability of dodecyl dihydrogen phosphate to activate fGPR120 expressed by the CHO cells was determined by measuring fluorescence using a FLIPR® Tetra screening system after contacting the cells with the compound in agonist mode and PAM mode according to the following protocol: • 1. […] PAM mode: injection of 3× dodecyl dihydrogen phosphate (10 μl/well), wherein fluorescence was measured for 3 min. After about 1 additional minute, injection of 3× fGPR120 agonist at a concentration corresponding to the agonist's EC20 (15 μl/well), wherein fluorescence (i.e., PAM activity) was measured for 3 min. The fGPR120 agonist was 1.5 μM α-linolenic acid. For mock controls, 0.2μ ATP was used as the agonist.
Controls for PAM mode experiments—dose response curves of α-linolenic acid (fGpr120) or ATP (mock) (FIGS. 12A and 12B): 100 μM α-linolenic acid (max signal for Gpr120), 1.5 μM α-linolenic acid (EC20, min signal for Gpr120), 30 μM ATP (max signal), 0.2 μM ATP (EC20, min signal).

In the case of `CC/C=C\C/C=C\C/C=C\CCCCCCCC(=O)O` [Compound 24, (9Z,12Z,15Z)-octadeca-9,12,15-trienoic acid], the “EC20 of the fGPR120 agonist” value (fGPR120; fGpr120 cells, concentration used as min signal in PAM mode) is reported as 1500 nM.

For `CCCCCCCCCCCCOP(=O)(O)O` [dodecyl dihydrogen phosphate, Dodecyl dihydrogen phosphate], the “modulation of fGPR120 activity as positive allosteric modulator (PAM)” value (fGPR120; PAM mode, in the presence of an fGPR120 agonist (1.5 μM α-linolenic acid, EC20)) was “modulated the activity of fGPR120 as a PAM”.

In the case of `Nc1ncnc2c1ncn2[C@@H]1O[C@H](COP(=O)(O)OP(=O)(O)OP(=O)(O)O)[C@@H](O)[C@H]1O` [ATP], the “EC20 of ATP in mock cells” value [1] is reported as 200 nM.
